The subject of series [1] is LN229 gliobastoma cells MGMT−/MMR+. As to the kind of experiment: Anti-cancer assay, isogenic LN229 cells, nuclei count (Examples 43, 46). The note with it: Homo sapiens, LN-229; LN229 MGMT−/MMR+; 120 hours; read-out: MGMT− MMR+ Activity. It counts as cell-based. An excerpt:
(§1) Cytotoxicity of the compounds may be measured in short-term cell viability assays against four isogenic LN229 glioblastoma cell lines engineered to be proficient or deficient in MGMT and/or MMR activity by using short hairpin RNAs (shRNAs) targeting MSH2. This approach allows for determination of the relationship between MGMT status, MMR status, and compound activity. LN229 cells are maintained in Dulbecco's Modified Eagle Medium (DMEM) supplemented with 10% fetal bovine serum, 1% Penicillin/Streptomycin, and 0.1% Fungin. DAY 0: Cells are plated into sterile 96-well plates (Corning Costar 96-well) at a concentration of 500 cells/well using a Multichannel pipettor. Then, assay plates are incubated overnight in a 37° C. 5% CO2 incubator. DAY 1: Compounds are prepared as 50 mM stocks in dimethyl sulfoxide (DMSO) and stored protected from light at room temperature (RT) until use. Prior to compound addition, a two-fold serial dilution of compound stock solutions is performed in DMSO from 30 mM to 0.117 mM in a 96-well Master plate. Vehicle control wells contain DMSO. 97 μL of media is added to each well of a new 96-well plate (Daughter plate) and 3 μL of drug solution from Master plate is added to corresponding wells in the Daughter plate resulting in a 3× plate. Three replicate dilution curves of each compound are run on each assay plate. The final concentration of compounds ranges from 300 μM to 1.171 μM (9-point, 2-fold dilution dose response curve), and the final DMSO concentration is 1%.
(§2) Assay plates are incubated for 120 hours at 37° C. in a humidified 5% CO2 incubator. DAY 5: Following incubation, cells are fixed with 4% paraformaldehyde and stained with Hoechst dye for nuclei visualization. Fixation, staining and washing is performed by using a Thermo Scientific Multidrop Combi. Images are acquired on a BioTek Cytation 5 Cell Imaging Multimode Reader and quantified using Cell Profiler image analysis software. Raw cell count data for test compounds are normalized to percent viability relative to the DMSO vehicle control.
(§3) Isogenic LN229 gliobastoma cells were maintained in Dulbecco's Modified Eagle Medium (DMEM) supplemented with 10% fetal bovine serum, 1% Penicillin/Streptomycin, and 0.1% Fungin. DAY 0: Cells were plated into sterile 96-well plates (Corning Costar 96-well) at a concentration of 500 cells/well using a Multichannel pipettor. Then, assay plates were incubated overnight in a 37° C. 5% CO2 incubator. DAY 1: Compounds were prepared as 50 mM stocks in dimethyl sulfoxide (DMSO) and stored protected from light at room temperature (RT) until use. Prior to compound addition, a two-fold serial dilution of compound stock solutions was performed in DMSO from 30 mM to 0.117 mM in a 96-well Master plate. Vehicle control wells contained DMSO. 97 μL of media was added to each well of a new 96-well plate (Daughter plate) and 3 μL of drug solution from Master plate was added to corresponding wells in the Daughter plate resulting in a 3× plate. Three replicate dilution curves of each compound were run on each assay plate. The final concentration of compounds ranged from 300 μM to 1.171 μM (9-point, 2-fold dilution dose response curve), and the final DMSO concentration was 1%.
(§4) Assay plates were incubated for 120 hours at 37° C. in a humidified 5% CO2 incubator. DAY 5: Following incubation, cells were fixed with 4% paraformaldehyde and stained with Hoechst dye for nuclei visualization. Fixation, staining and washing was performed by using a Thermo Scientific Multidrop Combi. Images were acquired on a BioTek Cytation 5 Cell Imaging Multimode Reader and quantified using Cell Profiler image analysis software. Raw cell count data for test compounds were normalized to percent viability relative to the DMSO vehicle control. […]

Series [2] deals with LN229 gliobastoma cells MGMT−/MMR−. Described as above. It counts as cell-based. Particulars: Homo sapiens, LN-229; LN229 MGMT−/MMR−; 120 hours; read-out: MGMT− MMR− Activity.
Source text: as §1, §2, §3, §4

The test system of the next series is Hs 294T. As to the kind of experiment: Cell panel nuclear dye assay. It counts as cell-based. The note with it: Homo sapiens, 120 h, Melanoma, 5-day incubation. Here is the method:
(§5) Cells were grown in RPMI1640, 10% FBS, 2 mM L-alanyl-L-glutamine, 1 mM Na pyruvate, or a special medium. Cells were seeded into 384-well plates and incubated in a humidified atmosphere of 5% CO2 at 37° C. Compound was added the day following cell seeding. At the same time, a time zero untreated cell plate was generated. After a 5-day incubation period, cells were fixed and stained to allow fluorescence imaging of nuclei.
(§6) Compounds were serially diluted in 2-fold steps from the highest test concentration specified, and assayed over 10 concentrations with a maximum assay concentration of 0.1% DMSO. Automated fluorescence microscopy was carried out using a Molecular Devices ImageXpress Micro XL high-content imager, and images were collected with a 4× objective. 16-bit TIFF images were acquired and analyzed with MetaXpress 5.1.0.41 software.
(§7) Cell proliferation was measured by the fluorescence intensity of an incorporated nuclear dye. The output is referred to as the relative cell count, where the measured nuclear intensity is transformed to percent of control (POC) using the following formula: […]
(§8) Cell count IC50 is the test compound concentration at 50% of maximal possible response. EC50 is the test compound concentration at the curve inflection point or half the effective response (parameter C of the fitted curve solution). GI50 is the concentration needed to reduce the observed growth by half (midway between the curve maximum and the time zero value). Activity area is an estimate of the integrated area above the curve. Activity area values range from 0-10, where a value of zero indicates no inhibition of proliferation at all concentrations, and a value of 10 indicates complete inhibition of proliferation at all concentrations. In rare instances, values <0 or >10 may be observed. In these instances, values <0 should be considered as equivalent to 0, whereas values >10 should be considered equivalent to 10.

A further series concerns MeWo. The experiment in a line: Cell panel nuclear dye assay. In kind it is cell-based. Particulars: Homo sapiens, 120 h, Melanoma, 5-day incubation. Here is the method:
as §5, §6, §7, §8

A further series has as its system SCC-9. The experiment in a line: Cell panel nuclear dye assay. It counts as cell-based. Particulars: Homo sapiens, 120 h, Head & neck (squamous cell carcinoma, tongue), 5-day incubation. Here is the method: as §5, §6, §7, §8
The subject of the next series is SK-LMS-1. As to the kind of experiment: Cell panel nuclear dye assay. Particulars: Homo sapiens, 120 h, Sarcoma (leiomyosarcoma), 5-day incubation. It counts as cell-based. On the procedure:
as §5, §6, §7, §8

The subject of the next series is ST486. The experiment in a line: Cell panel nuclear dye assay. It counts as cell-based. The note with it: Homo sapiens, 120 h, Lymphoma (Burkitt's), 5-day incubation. On the procedure: as §5, §6, §7, §8
For the next series, the system named is SW620. The experiment in a line: Cell panel nuclear dye assay. In kind it is cell-based. Particulars: Homo sapiens, SW-620, 120 h, Colon, 5-day incubation. On the procedure: as §5, §6, §7, §8
The subject of a further series is dogs. As to the kind of experiment: Animal model toxicity testing in dogs. Particulars: tested doses exceeded those at which A1 caused 100% mortality.

Usually EC50 stands for the concentration at which the effect is half-maximal.

For `NC(=O)c1ncn2c(=O)n(CCOC(F)(F)F)nnc12` [Compound I-1, 4-Oxo-3-(2-(trifluoromethoxy)ethyl)-3,4-dihydroimidazo[5,1-d][1,2,3,5]tetrazine-8-carboxamide], the IC50 in series [1] was under 20 µM; in series [2], under 20 µM; with Hs 294T it was at most 30 µM; in the series with MeWo, over 150 µM; in the series on SCC-9, 70 to 150 µM; in the series on SK-LMS-1, 30 to 70 µM. Besides, the figures for the IC50 in the series with ST486 and with SW620 were at most 30 µM and 70 to 150 µM, respectively. In addition, the EC50 in the series with Hs 294T was at most 30 µM; in the series on MeWo, over 150 µM; in the series on SCC-9, 70 to 150 µM; in the series on SK-LMS-1, 30 to 70 µM; in the series on ST486, at most 30 µM; in the series with SW620, 70 to 150 µM. For the same compound, in the series on dogs, the adverse clinical signs entry is reported as “no adverse clinical signs were observed”.
